Test results published in patent US20210008083A1, “USE OF A BISPHOSPHONATE SALT IN A MEDICAMENT FOR A NATURALLY OCCURRING DISEASE/DISORDER IN A MAMMAL” (Ostafit B.V., priority 2016, published 2021).

What was measured:
[1] = test system: various disorders and disease; assay: Present bisphosphonates tested on various naturally occurring disorders and diseases in mammals; design: species or system mammals (horses, donkeys, cows, dogs and cats); conditions: dog, in vivo
From the text: A repetition may be given after 4-12 months. […] In general it is noted that timing of potential benefit of antiresorptives in OA might be important. The greatest benefit in the prior art is typically seen very early in the disease. So to maintain the normal attitude mode, typically once per 1-12 month, preferably once per 2-6 months, such as once per 3-5 month, or put different 1-6 times per year, preferably 2-6 times per year, such as 3-4 times per year.
For better understanding of these diseases and disorders, the following section is added, such as to categorize these.
(§1) Typical symptoms for dogs and other animals mentioned in the description are lameness, stiffness, especially in the morning, after a stroll and when starting, moving with relatively short steps, a preference for lying down, no stamina, various difficulties/limitations, such as in rising or lying down, in keeping up walking pace, rising a leg, jumping on a couch, tail between the legs and squealing from pain.

primary osteoarthritis = conditions: guinea pig model of primary osteoarthritis; cited from earlier work
hip osteoarthritis = conditions: oral 35 mg once a week, 2 years; cited from earlier work
[2] = test system: osteoarthritis in the SI joint; conditions: one donkey, treated in line with the horses
Method: (§2) The following experiments were performed during November 2015-May 2016. In various veterinarian locations in the Netherlands the animals were treated or occasionally the animals were treated on a farm in a stable.
One donkey was treated in line with the horses above.

[3] = test system: osteoarthritis or similar complaints; conditions: 24 dogs, 5-15 years, 0.20 mg/kg intravenous during about 15 min
Method: as §2, §1

[4] = test system: osteoarthritis or similar complaints
Method: as §2
For cats it is preferred to provide the dosage in a subcutaneous manner.

osteoarthritis = conditions: 1 bull, 6 years, 0.2 mg/kg intravenous
Method: as §2

knee osteoarthritis = conditions: 2-year period; cited from earlier work

In the case of `CCCCCN(C)CCC(O)(P(=O)(O)O)P(=O)(O)O` [Ibandronate], the “outcome of testing on various disorders and disease” value (“outcome of testing” below) [1] is reported as “tested on various disorders and disease with success”.
For `NCCC(O)(P(=O)(O)O)P(=O)(O)O` [Pamidronate], the “outcome of testing” value [1] was “tested on various disorders and disease with success”.
With `O=P(O)(O)C(O)(Cn1ccnc1)P(=O)(O)O` [Zoledronate] the “outcome of testing” value [1] was “tested on various disorders and disease with success”.
In the case of `NCCCC(O)(P(=O)(O)O)P(=O)(O)O.O.O.O` [Alendronate, [4-amino-1-hydroxy-1-(hydroxy-oxido-phosphoryl)-butyl]phosphonic acid trihydrate], the “effect on disease progression” value (primary osteoarthritis) is listed as “Risedronate but not Alendronate slows disease progression”, the “outcome of testing” value [1] is listed as “tested on various disorders and disease with success” and the “clinical efficacy on pain” value (hip osteoarthritis) is listed as “had clinical efficacy of pain reduction”. The “effect on structural progression of hip osteoarthritis” value (hip osteoarthritis) was “failed to show preventive effects for structural progression of hip osteoarthritis”, the “result of treatment in donkey” value [2] was “results here were fine” and the “complaints of dogs after treatment” value [3] was “All dogs have significantly less complaints or were free of complaints within a few weeks”. The “cats free of complaints” value ([4]; eight cats, 12-18 years, 0.2 mg/kg subcutaneous or intravenous, one cat still had complaints (other medicines withdrawn)) was “Seven cats were free of complaints within a few weeks”, the “cats showing a good response (substantially free of complaints)” value ([4]; later experiments on more cats) was “more than 75%” and the “bull free of complaints” value (osteoarthritis) was “free of complaints within a month”.
With `NCCCCCC(O)(P(=O)(O)O)P(=O)(O)O` [Nerodronate] the “outcome of testing” value [1] was “tested on various disorders and disease with success”.
For `O=P(O)(O)C(O)(Cc1cccnc1)P(=O)(O)O` [Risedronate], the “effect on disease progression” value (primary osteoarthritis) is given as “slows disease progression”, the “symptom improvement or progression of radiographic osteoarthritis vs placebo” value (knee osteoarthritis) is given as “no significant differences in symptom improvement or progression of radiographic osteoarthritis” and the “outcome of testing” value [1] is given as “tested on various disorders and disease with success”.
For `CN(C)CCC(O)(P(=O)(O)O)P(=O)(O)O` [Olpadronate], the “outcome of testing” value [1] was “tested on various disorders and disease with success”.
